From patent US12054483B2, “Small molecule inhibitors of DYRK/CLK and uses thereof” (Arizona Board of Regents on Behalf of the University of …, priority 2018, dated 2024)

These molecules were tested against DYRK1A (Homo sapiens, UniProt Q13627) (assay: Affinity testing of compounds with DYRK1A (KD)). Conditions: DYRK1A affinity key classes.
Format: binding

Row | SMILES | Kd
1 | Fc1c(-c2ccncc2)ccc2ncn(-c3ccc4c(c3)OCO4)c12 [Compound 1, 1-(benzo[d][1,3]dioxol-5-yl)-7-fluoro-6-(pyridin-4-yl)-1H-benzo[d]imidazole] | 0.5 to 100 nM
2 | Fc1cc2ncn(-c3ccc4c(c3)OCO4)c2cc1-c1ccncc1 [Compound 2, 1-(benzo[d][1,3]dioxol-5-yl)-5-fluoro-6-(pyridin-4-yl)-1H-benzo[d]imidazole] | 0.5 to 100 nM
3 | Fc1cc(-c2ccncc2)cc2c1ncn2-c1ccc2c(c1)OCO2 [Compound 3, 1-(benzo[d][1,3]dioxol-5-yl)-4-fluoro-6-(pyridin-4-yl)-1H-benzo[d]imidazole] | 0.5 to 100 nM
4 | c1cc(-c2ccc3ncn(-c4ccc5c(c4)OCO5)c3n2)ccn1 [Compound 4, 3-(benzo[d][1,3]dioxol-5-yl)-5-(pyridin-4-yl)-3H-imidazo[4,5-b]pyridine] | 0.5 to 100 nM
5 | COC(=O)c1ccc(-n2cnc3ccc(-c4ccncc4)c(F)c32)cc1 [Compound 5, methyl 4-(7-fluoro-6-(pyridin-4-yl)-1H-benzo[d]imidazol-1-yl)benzoate] | 0.5 to 100 nM
6 | O=C(O)c1ccc(-n2cnc3ccc(-c4ccncc4)c(F)c32)cc1 [Compound 6, 4-(7-fluoro-6-(pyridin-4-yl)-1H-benzo[d]imidazol-1-yl)benzoic acid] | 101 to 500 nM
7 | COC(=O)c1ccc(-n2cnc3cc(F)c(-c4ccncc4)cc32)cc1 [Compound 7, methyl 4-(5-fluoro-6-(pyridin-4-yl)-1H-benzo[d]imidazol-1-yl)benzoate] | 101 to 500 nM
8 | O=C(O)c1ccc(-n2cnc3cc(F)c(-c4ccncc4)cc32)cc1 [Compound 8, 4-(5-fluoro-6-(pyridin-4-yl)-1H-benzo[d]imidazol-1-yl)benzoic acid] | 101 to 500 nM
9 | COC(=O)c1ccc(-n2cnc3ccc(-c4ccncc4)nc32)cc1 [Compound 9, methyl 4-(5-(pyridin-4-yl)-3H-imidazo[4,5-b]pyridin-3-yl)benzoate] | 0.5 to 100 nM
10 | O=C(O)c1ccc(-n2cnc3ccc(-c4ccncc4)nc32)cc1 [Compound 10, 4-(5-(pyridin-4-yl)-3H-imidazo[4,5-b]pyridin-3-yl)benzoic acid] | 0.5 to 100 nM
11 | N#Cc1ccnc(-n2cnc3ccc(-c4ccncc4)c(F)c32)c1 [Compound 11, 2-(7-fluoro-6-(pyridin-4-yl)-1H-benzo[d]imidazol-1-yl)isonicotinonitrile] | 101 to 500 nM
12 | NC(=O)c1ccnc(-n2cnc3ccc(-c4ccncc4)c(F)c32)c1 [Compound 12, 2-(7-fluoro-6-(pyridin-4-yl)-1H-benzo[d]imidazol-1-yl)isonicotinamide] | 101 to 500 nM
13 | O=C(O)c1ccnc(-n2cnc3ccc(-c4ccncc4)c(F)c32)c1 [Compound 13, 2-(7-fluoro-6-(pyridin-4-yl)-1H-benzo[d]imidazol-1-yl)isonicotinic acid] | 501 to 10000 nM
14 | N#Cc1ccc(-n2cnc3ccc(-c4ccncc4)c(F)c32)nc1 [Compound 14, 6-(7-fluoro-6-(pyridin-4-yl)-1H-benzo[d]imidazol-1-yl)nicotinonitrile] | 0.5 to 100 nM
15 | NC(=O)c1ccc(-n2cnc3ccc(-c4ccncc4)c(F)c32)nc1 [Compound 15, 6-(7-fluoro-6-(pyridin-4-yl)-1H-benzo[d]imidazol-1-yl)nicotinamide] | 0.5 to 100 nM
16 | COC(=O)c1ccc(-n2cnc3c(F)cc(-c4ccncc4)cc32)cc1 [Compound 16, methyl 4-(4-fluoro-6-(pyridin-4-yl)-1H-benzo[d]imidazol-1-yl)benzoate] | 0.5 to 100 nM
17 | O=C(O)c1ccc(-n2cnc3c(F)cc(-c4ccncc4)cc32)cc1 [Compound 17, 4-(4-fluoro-6-(pyridin-4-yl)-1H-benzo[d]imidazol-1-yl)benzoic acid] | 101 to 500 nM
18 | Cc1nc2ccc(-c3ccncc3)c(F)c2n1-c1ccc2c(c1)OCO2 [Compound 19, 1-(benzo[d][1,3]dioxol-5-yl)-7-fluoro-2-methyl-6-(pyridin-4-yl)-1H-benzo[d]imidazole] | 0.5 to 100 nM
19 | Cc1nc2ccc(-c3cn[nH]c3)c(F)c2n1-c1ccc2c(c1)OCO2 [Compound 20, 1-(benzo[d][1,3]dioxol-5-yl)-7-fluoro-2-methyl-6-(1H-pyrazol-4-yl)-1H-benzo[d]imidazole] | 0.5 to 100 nM
20 | Fc1c(-c2ccncc2)ccc2nc(C3CC3)n(-c3ccc4c(c3)OCO4)c12 [Compound 21, 1-(benzo[d][1,3]dioxol-5-yl)-2-cyclopropyl-7-fluoro-6-(pyridin-4-yl)-1H-benzo[d]imidazole] | 501 to 10000 nM
21 | c1cc(-c2ccc3ncc(-c4ccc5c(c4)OCO5)n3n2)ccn1 [Compound 23, 3-(benzo[d][1,3]dioxol-5-yl)-6-(pyridin-4-yl)imidazo[1,2-b]pyridazine] | 0.5 to 100 nM
22 | Nc1cc(-c2ccc3nccn3n2)ccn1 [Compound 24, 4-(imidazo[1,2-b]pyridazin-6-yl)pyridin-2-amine] | 0.5 to 100 nM

Row | SMILES | Kd
23 | Cc1cn2nc(-c3ccnc(N)c3)ccc2n1 [Compound 25, 4-(2-methylimidazo[1,2-b]pyridazin-6-yl)pyridin-2-amine] | 0.5 to 100 nM
24 | c1cn2nc(-c3cn[nH]c3)ccc2n1 [Compound 26, 6-(1H-pyrazol-4-yl)imidazo[1,2-b]pyridazine] | 101 to 500 nM
25 | c1n[nH]cc1-c1ccc2ncc(-c3ccc4c(c3)OCO4)n2n1 [Compound 27, 3-(benzo[d][1,3]dioxol-5-yl)-6-(1H-pyrazol-4-yl)imidazo[1,2-b]pyridazine] | 0.5 to 100 nM
26 | Cc1nc2ccc(-c3ccncc3)nc2n1-c1ccc(CN2CCOCC2)cc1 [Compound 28, 4-(4-(2-methyl-5-(pyridin-4-yl)-3H-imidazo[4,5-b]pyridin-3-yl)benzyl)morpholine] | 0.5 to 100 nM
27 | Cc1nc2ccc(-c3ccncc3)nc2n1-c1ccc2c(c1)OCO2 [Compound 29, 3-(benzo[d][1,3]dioxol-5-yl)-2-methyl-5-(pyridin-4-yl)-3H-imidazo[4,5-b]pyridine] | 0.5 to 100 nM
28 | Cc1nc2ccc(-c3cn[nH]c3)nc2n1-c1ccc2c(c1)OCO2 [Compound 30, 3-(benzo[d][1,3]dioxol-5-yl)-2-methyl-5-(1H-pyrazol-4-yl)-3H-imidazo[4,5-b]pyridine] | 0.5 to 100 nM
29 | Cc1nc2ccc(-c3cnn(C)c3)nc2n1-c1ccc2c(c1)OCO2 [Compound 31, 3-(benzo[d][1,3]dioxol-5-yl)-2-methyl-5-(1-methyl-1H-pyrazol-4-yl)-3H-imidazo[4,5-b]pyridine] | 101 to 500 nM
30 | Cc1nc2ccc(-c3ccncc3)nc2n1-c1ccc2[nH]cnc2c1 [Compound 32, 3-(1H-benzo[d]imidazol-5-yl)-2-methyl-5-(pyridin-4-yl)-3H-imidazo[4,5-b]pyridine] | 0.5 to 100 nM
31 | Cc1nc2ccc(-c3cn[nH]c3)nc2n1-c1ccc2[nH]cnc2c1 [Compound 33, 3-(1H-benzo[d]imidazol-5-yl)-2-methyl-5-(1H-pyrazol-4-yl)-3H-imidazo[4,5-b]pyridine] | 0.5 to 100 nM
32 | Cc1nc2ccc(-c3ccncc3)nc2n1-c1ccc2[nH]c(C(F)(F)F)nc2c1 [Compound 34, 2-methyl-5-(pyridin-4-yl)-3-(2-(trifluoromethyl)-1H-benzo[d]imidazol-5-yl)-3H-imidazo[4,5-b]pyridine] | 0.5 to 100 nM
33 | Cc1nc2cc(-n3c(C)nc4ccc(-c5ccncc5)nc43)ccc2o1 [Compound 35, 2-methyl-5-(2-methyl-5-(pyridin-4-yl)-3H-imidazo[4,5-b]pyridin-3-yl)benzo[d]oxazole] | 101 to 500 nM
34 | Cc1nc2cc(-n3c(C)nc4ccc(-c5cn[nH]c5)nc43)ccc2o1 [Compound 36, 2-methyl-5-(2-methyl-5-(1H-pyrazol-4-yl)-3H-imidazo[4,5-b]pyridin-3-yl)benzo oxazole] | 101 to 500 nM
35 | Cc1nc2ccc(-c3ccncc3)nc2n1-c1ccc2c(c1)OCC(=O)N2 [Compound 37, 7-(2-methyl-5-(pyridin-4-yl)-3H-imidazo[4,5-b]pyridin-3-yl)-2H-benzo[b][1,4]oxazin-3(4H)-one] | 0.5 to 100 nM
36 | CC(=O)N1C[C@@H]2[C@H](C1)[C@H]2n1c(C)nc2ccc(-c3ccncc3)nc21 [Compound 38, 1-((1R,5S,6s)-6-(2-methyl-5-(pyridin-4-yl)-3H-imidazo[4,5-b]pyridin-3-yl)-3-azabicyclo[3.1.0]hexan-3-yl)ethan-1-one] | 0.5 to 100 nM
37 | CC(=O)N1CC[C@H](n2c(C)nc3ccc(-c4ccncc4)nc32)C1 [Compound 39, (S)-1-(3-(2-methyl-5-(pyridin-4-yl)-3H-imidazo[4,5-b]pyridin-3-yl)pyrrolidin-1-yl)ethan-1-one] | 101 to 500 nM
38 | CCOC(=O)c1ccc(-n2c(C)nc3ccc(-c4ccncc4)nc32)cc1 [Compound 40, ethyl 4-(2-methyl-5-(pyridin-4-yl)-3H-imidazo[4,5-b]pyridin-3-yl)benzoate] | 0.5 to 100 nM
39 | Cc1nc2ccc(-c3ccncc3)nc2n1-c1ccc(=O)n(C)c1 [Compound 41, 1-methyl-5-(2-methyl-5-(pyridin-4-yl)-3H-imidazo[4,5-b]pyridin-3-yl)pyridin-2(1H)-one] | 101 to 500 nM
40 | Cc1nc2ccc(-c3ccncc3)nc2n1-c1ccc(C#N)cn1 [Compound 42, 6-(2-methyl-5-(pyridin-4-yl)-3H-imidazo[4,5-b]pyridin-3-yl)nicotinonitrile] | 0.5 to 100 nM
41 | COc1ccc(-n2c(C)nc3ccc(-c4ccncc4)nc32)cc1 [Compound 43, 3-(4-methoxyphenyl)-2-methyl-5-(pyridin-4-yl)-3H-imidazo[4,5-b]pyridine] | 0.5 to 100 nM
42 | Cc1nc2ccc(-c3ccnc(N)c3)nc2n1-c1ccc(CN2CCOCC2)cc1 [Compound 44, 4-(2-methyl-3-(4-(morpholinomethyl)phenyl)-3H-imidazo[4,5-b]pyridin-5-yl)pyridin-2-amine] | 0.5 to 100 nM
43 | Cc1nc2ccc(-c3cc[nH]c(=O)c3)nc2n1-c1ccc(CN2CCOCC2)cc1 [Compound 45, 4-(2-methyl-3-(4-(morpholinomethyl)phenyl)-3H-imidazo[4,5-b]pyridin-5-yl)pyridin-2(1H)-one] | 501 to 10000 nM
44 | Cc1nc2ccc(-c3ccnc(N)c3)nc2n1-c1ccc2c(c1)OCC(=O)N2 [Compound 46, 7-(5-(2-aminopyridin-4-yl)-2-methyl-3H-imidazo[4,5-b]pyridin-3-yl)-2H-benzo[b][1,4]oxazin-3(4H)-one] | 0.5 to 100 nM
